# Test results as given in ChEMBL document CHEMBL3217615, “Novel 3,5-bis(arylidiene)-4-piperidone based monocarbonyl analogs of curcumin: anticancer activity evaluation and mode of action study” (2014).
# How the values were obtained:
# Type in all cases: functional
# [1] = Growth inhibition of human UACC257 cells assessed as cell growth at 10^-6 M after 48 hrs by sulforhodamine B assay; settings: UACC-257, 48 h, read-out: Activity
# [2] = Growth inhibition of human LOXIMVI cells assessed as cell growth at 10^-6 M after 48 hrs by sulforhodamine B assay; settings: LOX IMVI, read-out: Activity
# [3] = Growth inhibition of human SF295 cells assessed as cell growth at 10^-6 M after 48 hrs by sulforhodamine B assay; settings: SF-295, 48 h, read-out: Activity
# [4] = Growth inhibition of human HCT15 cells assessed as cell growth at 10^-6 M after 48 hrs by sulforhodamine B assay; settings: HCT-15, 48 h, read-out: Activity
# COLO 205 [5] = experiment: Growth inhibition of human COLO205 cells assessed as cell growth at 10^-6 M after 48 hrs by sulforhodamine B assay; settings: COLO 205, 48 h, read-out: Activity
# NCI-H460 = experiment: Growth inhibition of human NCI-H460 cells assessed as cell growth at 10^-6 M after 48 hrs by sulforhodamine B assay; settings: NCI-H460, 48 h, read-out: Activity
# HOP-62 = experiment: Growth inhibition of human HOP62 cells assessed as cell growth at 10^-6 M after 48 hrs by sulforhodamine B assay; settings: HOP-62, 48 h, read-out: Activity
# MDA-MB-468 [6] = experiment: Growth inhibition of human MDA-MB-468 cells assessed as cell growth at 10^-7 M after 48 hrs by sulforhodamine B assay; settings: MDA-MB-468, 48 h, read-out: Activity
# A498 = experiment: Growth inhibition of human A498 cells assessed as cell growth at 10^-7 M after 48 hrs by sulforhodamine B assay; settings: A498, 48 h, read-out: Activity
# [7] = Growth inhibition of human BT549 cells assessed as cell growth at 10^-6 M after 48 hrs by sulforhodamine B assay; settings: BT-549, 48 h, read-out: Activity
# [8] = Growth inhibition of human RXF393 cells assessed as cell growth at 10^-6 M after 48 hrs by sulforhodamine B assay; settings: RXF 393, 48 h, read-out: Activity
# [9] = Growth inhibition of human OVCAR3 cells assessed as cell growth at 10^-4 M after 48 hrs by sulforhodamine B assay; settings: OVCAR-3, 48 h, read-out: Activity
# [10] = Growth inhibition of human LOXIMVI cells assessed as cell growth at 10^-4 M after 48 hrs by sulforhodamine B assay; settings: LOX IMVI, read-out: Activity
# [11] = Growth inhibition of human HCC2998 cells assessed as cell growth at 10^-4 M after 48 hrs by sulforhodamine B assay; settings: HCC 2998, 48 h, read-out: Activity
# [12] = Growth inhibition of human HOP92 cells assessed as cell growth at 10^-4 M after 48 hrs by sulforhodamine B assay; settings: HOP-92, 48 h, read-out: Activity
# K562 [13] = experiment: Growth inhibition of human K562 cells assessed as cell growth at 10^-4 M after 48 hrs by sulforhodamine B assay; settings: K562, 48 h, read-out: Activity
# [14] = Growth inhibition of human UACC257 cells assessed as cell growth at 10^-8 M after 48 hrs by sulforhodamine B assay; settings: UACC-257, 48 h; for growth at 0.01 µM: read-out: Activity; for TGI: read-out: pTGI (converted)
# SK-MEL-5 = experiment: Growth inhibition of human SK-MEL-5 cells assessed as cell growth at 10^-8 M after 48 hrs by sulforhodamine B assay; settings: SK-MEL-5, 48 h; for growth at 0.01 µM: read-out: Activity; for CC50: read-out: pLC50 (the source's name) (converted); for TGI: read-out: pTGI (converted)
# MDA-MB-435 = experiment: Growth inhibition of human MDA-MB-435 cells assessed as cell growth at 10^-8 M after 48 hrs by sulforhodamine B assay; settings: MDA-MB-435, 48 h; for growth at 0.01 µM: read-out: Activity; for TGI: read-out: pTGI (converted)
# SNB-75 = experiment: Growth inhibition of human SNB75 cells assessed as cell growth at 10^-8 M after 48 hrs by sulforhodamine B assay; settings: SNB-75, 48 h; for growth at 0.01 µM: read-out: Activity; for TGI: read-out: pTGI (converted)
# SNB-19 = experiment: Growth inhibition of human SNB19 cells assessed as cell growth at 10^-8 M after 48 hrs by sulforhodamine B assay; settings: SNB-19, 48 h; for growth at 0.01 µM: read-out: Activity; for TGI: read-out: pTGI (converted)
# Malme-3M = experiment: Growth inhibition of human MALME-3M cells after 48 hrs by sulforhodamine B assay; settings: for CC50: read-out: LC50 (the source's name)
# COLO 205 [15] = experiment: Growth inhibition of human COLO205 cells after 48 hrs by sulforhodamine B assay; settings: COLO 205, 48 h; for CC50: read-out: LC50 (the source's name)
# K562 [16] = experiment: Growth inhibition of human K562 cells after 48 hrs by sulforhodamine B assay; settings: K562, 48 h; for CC50: read-out: LC50 (the source's name)
# MCF7 = experiment: Growth inhibition of human MCF7 cells assessed as cell growth at 10^-4 M after 48 hrs by sulforhodamine B assay; settings: MCF7, 48 h, read-out: Activity
# SK-MEL-28 = experiment: Growth inhibition of human SK-MEL-28 cells assessed as cell growth at 10^-7 M after 48 hrs by sulforhodamine B assay; settings: SK-MEL-28, 48 h, read-out: Activity
# U-251 = experiment: Growth inhibition of human U251 cells assessed as cell growth at 10^-7 M after 48 hrs by sulforhodamine B assay; settings: U-251, 48 h, read-out: Activity
# HT-29 = experiment: Growth inhibition of human HT-29 cells assessed as cell growth at 10^-7 M after 48 hrs by sulforhodamine B assay; settings: HT-29, 48 h, read-out: Activity
# NCI-H522 = experiment: Growth inhibition of human NCI-H522 cells assessed as cell growth at 10^-7 M after 48 hrs by sulforhodamine B assay; settings: NCI-H522, 48 h, read-out: Activity
# MDA-MB-468 [17] = experiment: Growth inhibition of human MDA-MB-468 cells assessed as cell growth at 10^-8 M after 48 hrs by sulforhodamine B assay; settings: MDA-MB-468, 48 h; for growth at 0.01 µM: read-out: Activity; for CC50: read-out: pLC50 (the source's name) (converted); for TGI: read-out: pTGI (converted)
# [18] = Growth inhibition of human BT549 cells assessed as cell growth at 10^-8 M after 48 hrs by sulforhodamine B assay; settings: BT-549, 48 h; for growth at 0.01 µM: read-out: Activity; for TGI: read-out: pTGI (converted)
# CAKI-1 = experiment: Growth inhibition of human CAKI-1 cells assessed as cell growth at 10^-8 M after 48 hrs by sulforhodamine B assay; settings: CAKI-1, 48 h; for growth at 0.01 µM: read-out: Activity; for CC50: read-out: pLC50 (the source's name) (converted); for TGI: read-out: pTGI (converted)
smiles,measurement,setting,value
O=C1/C(=C/c2ccc(Cl)cc2Cl)CN(S(=O)(=O)c2ccccc2)C/C1=C\c1ccc(Cl)cc1Cl,growth at 1 µM,[1],86%
same,growth at 1 µM,[2],-37%
same,growth at 1 µM,[3],13%
same,growth at 1 µM,[4],-12%
same,growth at 1 µM,COLO 205 [5],16%
same,growth at 1 µM,NCI-H460,-53%
same,growth at 1 µM,HOP-62,5%
same,growth at 0.1 µM,MDA-MB-468 [6],94%
same,growth at 0.1 µM,A498,61%
same,growth at 1 µM,[7],50%
same,growth at 1 µM,[8],54%
same,growth at 100 µM,[9],-65%
same,growth at 100 µM,[10],-48%
same,growth at 100 µM,[11],-66%
same,growth at 100 µM,[12],-20%
same,growth at 100 µM,K562 [13],3%
same,GI50,[14],4070 nM
same,LC50,[14],> 100000 nM
same,growth at 0.01 µM,[14],94%
same,TGI,[14],> 100000 nM
same,growth at 0.01 µM,SK-MEL-5,94%
same,CC50,SK-MEL-5,> 100000 nM
same,TGI,SK-MEL-5,> 100000 nM
same,GI50,MDA-MB-435,977 nM
same,LC50,MDA-MB-435,> 100000 nM
same,growth at 0.01 µM,MDA-MB-435,90%
same,TGI,MDA-MB-435,3240 nM
same,GI50,SNB-75,437 nM
same,LC50,SNB-75,> 100000 nM
same,growth at 0.01 µM,SNB-75,79%
same,TGI,SNB-75,7240 nM
same,GI50,SNB-19,316 nM
same,LC50,SNB-19,> 100000 nM
same,growth at 0.01 µM,SNB-19,92%
same,TGI,SNB-19,2880 nM
same,GI50,Malme-3M,3210 nM
same,CC50,Malme-3M,> 100000 nM
same,GI50,COLO 205 [15],424 nM
same,TGI,COLO 205 [15],2010 nM
same,CC50,COLO 205 [15],> 100000 nM
same,GI50,K562 [16],346 nM
same,TGI,K562 [16],> 100000 nM
same,CC50,K562 [16],> 100000 nM
same,growth at 100 µM,MCF7,9%
same,growth at 0.1 µM,SK-MEL-28,93%
same,growth at 0.1 µM,U-251,86%
same,growth at 0.1 µM,HT-29,101%
same,growth at 0.1 µM,NCI-H522,97%
same,GI50,MDA-MB-468 [17],1120 nM
same,growth at 0.01 µM,MDA-MB-468 [17],90%
same,CC50,MDA-MB-468 [17],> 100000 nM
same,TGI,MDA-MB-468 [17],3890 nM
same,GI50,[18],977 nM
same,LC50,[18],> 100000 nM
same,growth at 0.01 µM,[18],106%
same,TGI,[18],4170 nM
same,GI50,CAKI-1,1820 nM
same,growth at 0.01 µM,CAKI-1,89%
same,CC50,CAKI-1,> 100000 nM
same,TGI,CAKI-1,5750 nM
Cc1ccc(S(=O)(=O)N2C/C(=C\c3cc(F)cc(F)c3)C(=O)/C(=C/c3cc(F)cc(F)c3)C2)cc1,growth at 1 µM,[1],49%
same,growth at 1 µM,[2],-82%
same,growth at 1 µM,[3],29%
same,growth at 1 µM,[4],5%
same,growth at 1 µM,COLO 205 [5],35%
same,growth at 1 µM,NCI-H460,45%
same,growth at 1 µM,HOP-62,93%
same,growth at 0.1 µM,MDA-MB-468 [6],83%
same,growth at 0.1 µM,A498,93%
same,growth at 1 µM,[7],-4%
same,growth at 1 µM,[8],44%
same,growth at 100 µM,[9],-98%
same,growth at 100 µM,[10],-98%
same,growth at 100 µM,[11],-95%
same,growth at 100 µM,[12],-58%
same,growth at 100 µM,K562 [13],-41%
same,GI50,[14],933 nM
same,LC50,[14],8510 nM
same,growth at 0.01 µM,[14],93%
same,TGI,[14],2880 nM
same,GI50,SK-MEL-5,288 nM
same,growth at 0.01 µM,SK-MEL-5,98%
same,CC50,SK-MEL-5,3630 nM
same,TGI,SK-MEL-5,1070 nM
same,GI50,MDA-MB-435,240 nM
same,LC50,MDA-MB-435,3630 nM
same,growth at 0.01 µM,MDA-MB-435,96%
same,TGI,MDA-MB-435,692 nM
same,GI50,SNB-75,2000 nM
same,LC50,SNB-75,26300 nM
same,growth at 0.01 µM,SNB-75,88%
same,TGI,SNB-75,5890 nM
same,GI50,SNB-19,219 nM
same,LC50,SNB-19,2820 nM
same,growth at 0.01 µM,SNB-19,87%
same,TGI,SNB-19,759 nM
same,GI50,Malme-3M,274 nM
same,TGI,Malme-3M,742 nM
same,CC50,Malme-3M,3810 nM
same,GI50,COLO 205 [15],612 nM
same,TGI,COLO 205 [15],2110 nM
same,CC50,COLO 205 [15],6140 nM
same,GI50,K562 [16],77.2 nM
same,TGI,K562 [16],1370 nM
same,CC50,K562 [16],> 100000 nM
same,growth at 100 µM,MCF7,-72%
same,growth at 0.1 µM,SK-MEL-28,93%
same,growth at 0.1 µM,U-251,80%
same,growth at 0.1 µM,HT-29,91%
same,growth at 0.1 µM,NCI-H522,102%
same,GI50,MDA-MB-468 [17],347 nM
same,growth at 0.01 µM,MDA-MB-468 [17],90%
same,CC50,MDA-MB-468 [17],5750 nM
same,TGI,MDA-MB-468 [17],1700 nM
same,GI50,[18],339 nM
same,LC50,[18],3550 nM
same,growth at 0.01 µM,[18],102%
same,TGI,[18],933 nM
same,GI50,CAKI-1,363 nM
same,growth at 0.01 µM,CAKI-1,94%
same,CC50,CAKI-1,61700 nM
same,TGI,CAKI-1,2450 nM
